From ChEMBL document CHEMBL2074099, “Divergent regulation of the class II P-glycoprotein gene in primary cultures of hepatocytes versus H35 hepatoma by glucocorticoids” (Cell Growth Differ, 1995)

Legend:
[1] = target: T1, ATP-dependent translocase ABCB1 (Rattus norvegicus, UniProt P43245); experiment: TP_TRANSPORTER: Western blot, primary hepatocytes; assay type: functional, cell-based, Hepatocyte
[2] = target: T1, ATP-dependent translocase ABCB1; experiment: TP_TRANSPORTER: Northern blot from primary hepatocytes; assay type: functional, cell-based, Hepatocyte

T1 sequence (P43245 whole entry): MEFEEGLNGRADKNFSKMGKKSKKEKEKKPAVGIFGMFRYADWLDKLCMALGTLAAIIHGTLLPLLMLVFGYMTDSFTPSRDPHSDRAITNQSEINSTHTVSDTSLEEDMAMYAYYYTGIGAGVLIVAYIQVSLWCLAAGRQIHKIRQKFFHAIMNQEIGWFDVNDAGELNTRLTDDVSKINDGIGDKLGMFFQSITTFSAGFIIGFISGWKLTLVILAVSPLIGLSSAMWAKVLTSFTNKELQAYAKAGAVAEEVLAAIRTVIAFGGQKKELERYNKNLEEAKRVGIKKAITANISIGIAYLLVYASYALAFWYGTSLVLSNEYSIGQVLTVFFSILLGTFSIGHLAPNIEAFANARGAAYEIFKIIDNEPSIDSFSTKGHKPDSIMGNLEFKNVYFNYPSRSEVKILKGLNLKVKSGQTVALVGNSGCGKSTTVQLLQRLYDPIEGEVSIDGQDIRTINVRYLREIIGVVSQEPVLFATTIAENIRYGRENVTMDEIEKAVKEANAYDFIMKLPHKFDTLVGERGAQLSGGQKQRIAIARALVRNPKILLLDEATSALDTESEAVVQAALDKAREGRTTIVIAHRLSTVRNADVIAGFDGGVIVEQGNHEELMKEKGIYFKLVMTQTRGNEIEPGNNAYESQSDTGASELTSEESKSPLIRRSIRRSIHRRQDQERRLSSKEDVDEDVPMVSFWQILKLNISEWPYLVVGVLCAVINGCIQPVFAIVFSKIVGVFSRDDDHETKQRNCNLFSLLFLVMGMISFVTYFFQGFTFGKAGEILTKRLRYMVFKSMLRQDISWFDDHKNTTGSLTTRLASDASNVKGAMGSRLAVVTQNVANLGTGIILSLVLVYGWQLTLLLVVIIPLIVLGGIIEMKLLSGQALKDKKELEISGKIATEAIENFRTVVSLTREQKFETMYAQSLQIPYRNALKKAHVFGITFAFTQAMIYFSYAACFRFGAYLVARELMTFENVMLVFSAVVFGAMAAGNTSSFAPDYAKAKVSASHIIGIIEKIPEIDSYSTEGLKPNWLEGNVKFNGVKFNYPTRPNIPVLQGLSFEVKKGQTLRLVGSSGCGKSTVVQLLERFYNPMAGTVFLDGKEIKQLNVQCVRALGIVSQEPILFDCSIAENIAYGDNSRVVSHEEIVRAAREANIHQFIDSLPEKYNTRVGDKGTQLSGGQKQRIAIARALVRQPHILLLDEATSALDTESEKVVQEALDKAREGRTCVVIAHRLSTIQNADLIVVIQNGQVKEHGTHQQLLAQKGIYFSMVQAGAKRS

SMILES: C[C@@H]1C[C@H]2[C@@H]3CCC4=CC(=O)C=C[C@]4(C)[C@@]3(F)[C@@H](O)C[C@]2(C)[C@@]1(O)C(=O)CO [DEXAMETHASONE]
- Activity [1]: inducer [Decrease]
- Activity [2]: inducer [Decrease]
